Test results as given in US20220330547A1, “INSECT REPELLENT” (Rilis Co., Ltd., priority 2019, published 2022).
“And” between values parts separate entries of the source, which are not always exact repeats. Identical values can stand only once. Like-named read-outs stand apart in the source and are kept apart here.

Assays:
[1] = oxidative modification of sample on filter paper, 40° C. for a week, measured by chromatography; type: physicochemical; conditions: for Variation (Oxidation) (%): decrease of area after 1 week at 40° C.; for Day of experiment (area): filter paper 1 g/m^2, measured on the day; for After 1 week (area): filter paper 1 g/m^2, sealed flask, 40° C., 150 rpm, a week
[2] = tested on: ticks; experiment: tick repellency test (petri dish) with filter paper heated at 150° C.; type: in vivo; conditions: 24 hours
Method: Subsequently, a relationship between the tick repellent effect resulting from a difference in oxidative modification rate and time was examined. In the test, mixed farnesyl acetone isomers, trans-farnesyl acetone, 2,4-DHAP and xanthoxyline were each dissolved to 1 g/m^2 in acetone, and each filter paper added thereto was heated at 150° C. only for 3 minutes, 5 minutes or 26 minutes. The filter paper not heated (hereinafter referred to as 150° C., 0 min) was also prepared.
Each filter paper was placed on the center of a petri dish with a diameter of 4 cm, and 0.05 g of an attractant sample was placed on the center of filter paper. The petri dish was placed on the center of another petri dish with a diameter of 9 cm, and about 10000 ticks were provided together with a medium to this another petri dish, which was left to stand for 24 hours. After that, ticks in the 4 cm petri dish were counted.
For the repellency rate, the proportion of the number of ticks which had not been attracted was calculated by the following formula using the number of ticks entering the petri dish on which only the attractant sample was placed, x (control), and contrarily the number of ticks entering the petri dish on which mixed farnesyl acetone isomers, trans-farnesyl acetone, 2,4-DHAP or xanthoxyline was placed, n.
Repellency rate={(x−n)/x} x 100 (%)
* a small number of entering ticks =high repellency rate
It should be noted that the heating time at 150° C. is not described in detail herein, but was converted by the following Arrhenius equation described in “Sumie Yoshioka, Stability of drugs and dosage forms, p. 142, 1995, Nankodo Co., Ltd.” as in Drug testing on Stability studies.
Arrhenius equation: k =A exp (-E/RT)
* Activation energy of stability studies E=22.1 kcal/mol.

[3] = 25° C.; cited from earlier work
[4] = tested on: ticks; conditions: 1 g/m^2, after 24 hours; for Mortality rate after correction (%): corrected by mortality rate without treatment
Method: Incidentally, a tick killing experiment was performed by a filter paper contact method to examine whether or not the insecticidal effect is contained in the repellent effect of 2,4-DHAP and xanthoxyline. In the experiment, ticks attracted to the untreated site in the repellent test by the petri-dish method were obtained on a filter paper by the sodium chloride floatation method, and living ticks were gently taken with a fine brush (one stroke). A 5 cm x 10 cm filter paper permeated with 1 g/m^2 of a sample was dried in air and shaped into a bag form. The taken ticks were put therein, and the opening thereof was closed with clips. After 24 hours, living ticks and dead ticks were measured.
In the tick killing test, 2,4-DHAP, xanthoxyline and DEET were compared. DEET is a compound used as a repellent for e.g. insects (anti-insect agent), and is also called N,N-diethyl-3-methylbenzamide or N,N-diethyl-m-toluamide.
In Table 3, the mortality rates (%) of 2,4-DHAP, xanthoxyline and DEET are values corrected by the mortality rate without treatment based on the mortality rate without treatment.

[5] = tested on: ticks; experiment: repellent effect of farnesyl acetone in an environment of 150° C. (background statement); type: in vivo
Method: For example, if there is a heat treatment step in the step of the anti-tick treatment, because oxidation reactivity due to heat is high, the repellent effect is already reduced to 30% or less after about 3 minutes in an environment of 150° C., and the repellent effect is reduced to 0% by at most 60 minutes. That is to say, it is troublesome to subject living materials of interest to the anti-tick treatment.

[6] = tested on: ticks; conditions: maintained over 14 days; cited from earlier work
[7] = 1 g/m^2, 150° C. 0 min (not heated)
[8] = 1 g/m^2, 150° C. 3 min (corresponding to 25° C., about 4 months)
[9] = 1 g/m^2, 150° C. 5 min (corresponding to 25° C., about 7 months)
[10] = 1 g/m^2, 150° C. 26 min (corresponding to 25° C., about 3 years)

With CC(=O)CCC=C(C)CCC=C(C)CCC=C(C)C (mixture of isomers) [Mixed farnesyl acetone isomers, farnesyl acetone] the “Variation (Oxidation) (%)” value [1] was 67.10%, the “Variation (Oxidation) (%)” value ([1]; listed as mixed farnesyl acetone isomers) was 67.10% and the “Day of experiment (area)” value [1] was 3145831 area. For the same molecule, the “After 1 week (area)” value [1] was 1038335 area, the Repellency rate [2, 7] was 90.60% and the Repellency rate [2, 8] was 94.90%. For the same molecule, the Repellency rate [2, 9] was 24.60%, the Repellency rate ([2]; 1 g/m^2, 150° C. 5 min (corresponding to 25° C., about 7 months), listed as mixed farnesyl acetone isomers) was 30% and the Repellency rate [2, 10] was 17.60%. For the same molecule, the Repellency rate ([2]; 1 g/m^2, 150° C. 26 min (corresponding to 25° C., about 3 years), listed as mixed farnesyl acetone isomers) was 17.6%.

In the case of CC(=O)c1ccc(O)cc1O [2,4-DHAP, 2′,4′-dihydroxyacetophenone], the transpiration properties [3] is listed as 6×10^-5 mmHg, the “Variation (Oxidation) (%)” value [1] is listed as 7.4% and 7.46% and the “Day of experiment (area)” value [1] is listed as 12027833 area. For the same molecule, the “After 1 week (area)” value [1] was 11130386 area, the Repellency rate [2, 7] was 39.80% and the Repellency rate [2, 8] was 37.40%. The Dead ticks ([4]; Average) was 4, the Living ticks ([4]; Average) was 106 and the “Mortality rate (%)” value ([4]; Average) was 3.4%. The Living ticks ([4]; single run) was 81 and 131, the “Mortality rate (%)” value ([4]; single run) was 2.4% and 4.4% and the “Mortality rate after correction (%)” value ([4]; single run) was 0.0%.

For CCN(CC)C(=O)c1cccc(C)c1 [DEET, N,N-diethyl-3-methylbenzamide, reference compound], the Dead ticks ([4]; Average) was 62, the Living ticks ([4]; Average) was 2 and the “Mortality rate (%)” value ([4]; Average) was 96.2%. For the same molecule, the “Mortality rate after correction (%)” value ([4]; Average) was 95.8%, the “Mortality rate (%)” value ([4]; single run) was 100.0% and 92.3% and the “Mortality rate after correction (%)” value ([4]; single run) was 100.0% and 91.5%.

For COc1cc(O)c(C(C)=O)c(OC)c1 [Xanthoxyline], the transpiration properties [3] is listed as 1.5×10^-5 mmHg, the “Variation (Oxidation) (%)” value [1] is listed as 2.42% and the “Variation (Oxidation) (%)” value ([1]; listed as xanthoxyline) is listed as 2.42%. The “Day of experiment (area)” value [1] was 5756751 area, the “After 1 week (area)” value [1] was 5617299 area and the Repellency rate [2, 7] was 92.40%. For the same molecule, the Repellency rate [2, 8] was 97.40%, the Repellency rate ([2]; 1 g/m^2, 150° C. 3 min (corresponding to 25° C., about 4 months), listed as xanthoxyline) was ≥ 90% and the Repellency rate [2, 9] was 95.80%. For the same molecule, the Repellency rate ([2]; 1 g/m^2, 150° C. 5 min (corresponding to 25° C., about 7 months), listed as xanthoxyline) was ≥ 90%, the Repellency rate [2, 10] was 93.00% and the Dead ticks ([4]; Average) was 24. The Living ticks ([4]; Average) was 75, the Dead ticks ([4]; single run) was 26 and 22 and the Living ticks ([4]; single run) was 90 and 59.

In the case of CC(=O)CCC=C(C)CCC=C(C)CCC=C(C)C [farnesyl acetone], the repellent effect ([5]; after about 3 minutes at 150° C.) is listed as ≤ 30%, the repellent effect ([5]; by at most 60 minutes at 150° C.) is listed as 0% and the repellent effect [6] is listed as ≥ 95%.

For CC(=O)CC/C=C(\C)CC/C=C(\C)CCC=C(C)C [trans-Farnesyl acetone], the “Variation (Oxidation) (%)” value [1] was 19.29%, the “Variation (Oxidation) (%)” value ([1]; listed as trans-farnesyl acetone) was 19.29% and the “Day of experiment (area)” value [1] was 4022168 area. For the same molecule, the “After 1 week (area)” value [1] was 3246218 area, the Repellency rate [2, 7] was 94.30% and the Repellency rate [2, 8] was 90.50%. For the same molecule, the Repellency rate [2, 9] was 65.70%, the Repellency rate ([2]; 1 g/m^2, 150° C. 5 min (corresponding to 25° C., about 7 months), listed as trans-farnesyl acetone) was “below 65%” and the Repellency rate [2, 10] was 0.00%.
